Values joined by “and” are separate entries in the source; they are usually repeats but may differ in a detail not shown here. Identical values can stand only once.
c1ccc2cc3ccccc3cc2c1 [anthracene]
Crystal
Conditions | vapor or sublimation pressure
339.25 K | 0.000104 kPa
348.35 K | 0.000289 kPa
360.45 K | 0.000978 kPa
365.66 K | 0.00158 kPa
373.95 K | 0.00311 kPa
376.95 K | 0.00358 kPa
379.55 K | 0.00416 kPa
386.45 K | 0.00813 kPa
389.05 K | 0.00875 kPa and 0.00962 kPa
392.95 K | 0.01486 kPa
393.75 K | 0.01211 kPa and 0.01243 kPa
398.05 K | 0.01765 kPa
398.55 K | 0.01813 kPa and 0.0185 kPa

CC(=O)[CH-]C(C)=O.CC(=O)[CH-]C(C)=O.[Cu+2] [bis(2,4-pentanedionato-O,O')copper]
Crystal
Conditions | vapor or sublimation pressure [kPa]
367.65 K | 2.2e-05
372.42 K | 3.9e-05
376.95 K | 6.8e-05
381.83 K | 0.00011
386.45 K | 0.000172
388.98 K | 0.000201
395.55 K | 0.000398
398.5 K | 0.000601
400.64 K | 0.000705
403.26 K | 0.000875
405.05 K | 0.00118
414.35 K | 0.00257
417.53 K | 0.00387
423.85 K | 0.00479
433.65 K | 0.00927
442.85 K | 0.0199

c1cc2ccc3cccc4ccc(c1)c2c34 [pyrene]
Crystal 1
Conditions | vapor or sublimation pressure [kPa]
341.45 K | 7.5e-05
351.05 K | 0.000171
369.85 K | 0.000882
373.95 K | 0.00147
379.55 K | 0.00197
383.95 K | 0.00472
389.05 K | 0.00539
392.95 K | 0.00846
398.55 K | 0.01067
402.05 K | 0.01662
408.05 K | 0.02731

Reference: the NIST ThermoML archive (doi:10.1021/je9001653)
